Reference: patent US12156533B2, “Nicotine salt formulations for aerosol devices and methods thereof” (JUUL Labs, Inc., priority 2013, dated 2024)

Details: nicotine:tartaric acid 1:2 molar ratio; in PG, VG or any mixture of PG and VG at ambient conditions
Source text: As used herein, weight percentage (w/w) refers to the weight of the individual component over the weight of the total formulation.

CN1CCCC1c1cccnc1.O=C(O)C(O)C(O)C(=O)O (stereo not shown) [nicotine bitartrate]
concentration at which no solution is produced: ≥ 0.5 % (w/w) nicotine
